According to BigSolDB 2.1:

COc1ccc2c3c1O[C@H]1[C@@H](O)C=C[C@H]4[C@@H](C2)N(C)CC[C@@]341.O=P(O)(O)O
solubility (mole fraction)
Details	293.2 K	298.2 K	303.2 K	308.2 K	313.2 K
in NMP	0.00206	0.00212	0.00239	0.00249	0.00259
in isopropanol	1.96e-05	2.52e-05	2.99e-05	3.6e-05	3.99e-05
